Holding throughout (format): cell-based
The target in assay [1] is Her2 exon 20 YVMA insertion (A775_G776ins YVMA) (Homo sapiens (Human), UniProt P04626, INS775YVMA). Nature of the assay: Ba/F3-Her2 Exon20 YVMA cell anti-proliferative assay (CellTiter 96 MTS, 72 h). To be noted: Ba/F3-Her2 Exon20 YVMA cells. The source says:
Ba/F3 cells expressing Her2 Exon20 YVMA insertions (named Ba/F3-Her2 Exon20 YVMA) can proliferate in the absence of IL-3.

Assay [2] has as its target human EGFR L858R and T790M double mutation (LT) (Homo sapiens (Human), UniProt P00533, L858R/T790M). Nature of the assay: Ba/F3-EGFR L858R/T790M cell anti-proliferative assay (CellTiter 96 MTS, 72 h).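 For all read-outs here: Ba/F3 cells carrying the EGFR L858R/T790M double mutant are able to grow without IL-3.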 To be noted: Ba/F3-EGFR L858R/T790M cells; for IC50: read-out: EGFR exon 21 L858R and T790M mutation IC50.
Description: An expression vector, pLVX-IRES puro (Clontech) coding for human EGFR L858R and T790M double mutation, was transfected into HEK293 cells by the Trans-Lentiviral ORF Packaging System (Thermo Scientific), to produce virus encoding EGFR L858R and T790M double mutations. […] Ba/F3 cells expressing EGFR L858R and T790M double mutation (named Ba/F3-EGFR L858R/T790M) can proliferate in the absence of IL-3. The anti-proliferative activity of compounds was determined as follows: BaF3-EGFR L858R/T790M cells seeded in 96 well plates (2500 cells/well) were treated with test compound (dissolved in DMSO) at a series of concentrations (4-fold dilution, top concentration: 10,000 nM). The plates were incubated for 72 h in a 37° C. incubator with 5% CO2, and the number of viable cells in each well were measured indirectly by CellTiter 96® Aqueous One Solution Cell Proliferation Assay (Promega; this assay is a colorimetric method for determining the number of viable cells through measurement of their metabolic activity by detection of enzymatic conversion of tetrazolium salts into blue formazan derivatives). Reagent (20 μL) was added into each well, and the plates were returned to the incubator for 2 h. The absorbance in each well was then measured at 490 nm using an Envision plate reader (Perkin Elmer).
In assay [3] the target is human EGFR exon 20 insertion ASV (V769_D770insASV) (Homo sapiens (Human), UniProt P00533, INS769ASV). Briefly: Ba/F3-EGFR-Exon20-ASV cell anti-proliferative assay (CellTiter 96 MTS, 72 h).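 Note: Ba/F3 cells bearing the EGFR exon 20 ASV insertion, a line able to proliferate without IL-3.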 To be noted: Ba/F3-EGFR-Exon20-ASV cells.
human EGFR exon 20 insertion ASV (V769_D770insASV), sequence (P00533 other isoform, or with tags, fused parts or gaps ins ASV behind 769): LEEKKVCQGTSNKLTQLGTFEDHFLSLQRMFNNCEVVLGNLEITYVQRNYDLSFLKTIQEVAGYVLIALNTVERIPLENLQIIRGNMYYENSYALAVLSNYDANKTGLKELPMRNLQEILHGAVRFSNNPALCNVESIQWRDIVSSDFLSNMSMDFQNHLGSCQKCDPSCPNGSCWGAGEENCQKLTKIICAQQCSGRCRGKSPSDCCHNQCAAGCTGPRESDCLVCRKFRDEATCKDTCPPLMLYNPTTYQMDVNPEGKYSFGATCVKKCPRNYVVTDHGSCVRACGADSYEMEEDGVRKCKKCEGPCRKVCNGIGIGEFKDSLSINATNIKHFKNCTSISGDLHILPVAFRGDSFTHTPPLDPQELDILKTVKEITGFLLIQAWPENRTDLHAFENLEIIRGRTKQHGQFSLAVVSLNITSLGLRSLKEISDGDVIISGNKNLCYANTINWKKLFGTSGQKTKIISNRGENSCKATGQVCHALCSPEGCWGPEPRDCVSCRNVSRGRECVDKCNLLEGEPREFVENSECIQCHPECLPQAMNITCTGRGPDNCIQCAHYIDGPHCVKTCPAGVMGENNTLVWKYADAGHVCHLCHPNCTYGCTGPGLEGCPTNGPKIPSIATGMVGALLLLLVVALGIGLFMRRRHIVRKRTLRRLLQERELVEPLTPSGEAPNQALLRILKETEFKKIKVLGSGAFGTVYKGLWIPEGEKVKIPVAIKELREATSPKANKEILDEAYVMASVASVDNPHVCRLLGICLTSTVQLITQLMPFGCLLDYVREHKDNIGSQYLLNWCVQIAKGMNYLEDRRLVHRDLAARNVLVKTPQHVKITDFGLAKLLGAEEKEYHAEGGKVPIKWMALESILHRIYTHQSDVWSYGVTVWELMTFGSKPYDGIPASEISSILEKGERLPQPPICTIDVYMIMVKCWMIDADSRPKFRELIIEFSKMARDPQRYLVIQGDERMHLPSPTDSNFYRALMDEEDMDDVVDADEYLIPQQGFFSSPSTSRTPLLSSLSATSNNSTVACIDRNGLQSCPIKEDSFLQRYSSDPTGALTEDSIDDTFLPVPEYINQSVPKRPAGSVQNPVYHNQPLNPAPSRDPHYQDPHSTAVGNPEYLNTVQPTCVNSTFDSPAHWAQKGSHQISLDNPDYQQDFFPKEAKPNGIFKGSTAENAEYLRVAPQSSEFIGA
For assay [4], the target named is human EGFR E746-A750 deletion and T790M Mutation (DT) (Homo sapiens (Human), UniProt P00533, DEL746-750/T790M). Nature of the assay: Ba/F3-EGFR-Del/T790M cell anti-proliferative assay (CellTiter 96 MTS, 72 h). To be noted: Ba/F3-EGFR-Del/T790M cells; for IC50: read-out: EGFR exon 19 deletion and T790M mutation IC50.
human EGFR E746-A750 deletion and T790M Mutation (DT), sequence (P00533 other isoform, or with tags, fused parts or gaps T790M/del E746-A750): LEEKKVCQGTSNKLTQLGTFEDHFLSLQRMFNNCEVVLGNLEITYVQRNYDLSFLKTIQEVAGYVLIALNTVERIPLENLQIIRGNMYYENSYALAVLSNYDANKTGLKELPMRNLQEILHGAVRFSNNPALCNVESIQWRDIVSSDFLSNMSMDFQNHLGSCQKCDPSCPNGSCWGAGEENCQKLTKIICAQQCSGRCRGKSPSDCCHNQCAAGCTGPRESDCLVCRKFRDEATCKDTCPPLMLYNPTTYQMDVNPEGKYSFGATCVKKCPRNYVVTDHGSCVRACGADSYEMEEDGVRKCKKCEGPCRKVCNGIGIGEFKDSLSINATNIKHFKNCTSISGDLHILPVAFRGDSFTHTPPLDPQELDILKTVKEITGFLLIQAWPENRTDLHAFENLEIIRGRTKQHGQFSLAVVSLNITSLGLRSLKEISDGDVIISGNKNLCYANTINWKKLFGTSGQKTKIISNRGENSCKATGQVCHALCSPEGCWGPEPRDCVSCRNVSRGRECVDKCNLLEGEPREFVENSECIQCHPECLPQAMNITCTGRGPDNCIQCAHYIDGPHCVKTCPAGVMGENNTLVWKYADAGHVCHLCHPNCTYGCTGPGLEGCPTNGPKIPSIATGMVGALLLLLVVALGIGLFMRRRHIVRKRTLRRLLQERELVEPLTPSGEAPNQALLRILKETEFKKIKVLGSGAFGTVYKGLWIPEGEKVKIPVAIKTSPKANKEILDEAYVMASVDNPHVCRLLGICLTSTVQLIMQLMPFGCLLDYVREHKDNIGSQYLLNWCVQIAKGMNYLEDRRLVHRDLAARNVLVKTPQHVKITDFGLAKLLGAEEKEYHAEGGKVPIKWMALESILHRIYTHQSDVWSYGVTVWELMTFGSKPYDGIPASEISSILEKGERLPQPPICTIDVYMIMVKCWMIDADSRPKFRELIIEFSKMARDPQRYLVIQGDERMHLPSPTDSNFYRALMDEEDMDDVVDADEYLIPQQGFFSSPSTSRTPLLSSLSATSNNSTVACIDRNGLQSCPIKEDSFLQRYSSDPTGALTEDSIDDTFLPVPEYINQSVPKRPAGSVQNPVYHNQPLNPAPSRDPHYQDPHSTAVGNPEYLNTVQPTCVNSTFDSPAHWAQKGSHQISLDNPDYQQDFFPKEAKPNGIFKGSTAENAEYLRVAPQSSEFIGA
The target of assay [5] is human EGFR exon 20 insertion NPG (H773_V774insNPG) (Homo sapiens, UniProt P00533, INS773NPG, cells depend on it). Nature of the assay: Ba/F3-EGFR-Exon20-NPG cell anti-proliferative assay (CellTiter 96 MTS, 72 h). The following applies: read-out: EGFR exon 20 NPG insertion IC50.
human EGFR exon 20 insertion NPG (H773_V774insNPG), sequence (P00533 with tags, fused parts or gaps INS773NPG limits assumed): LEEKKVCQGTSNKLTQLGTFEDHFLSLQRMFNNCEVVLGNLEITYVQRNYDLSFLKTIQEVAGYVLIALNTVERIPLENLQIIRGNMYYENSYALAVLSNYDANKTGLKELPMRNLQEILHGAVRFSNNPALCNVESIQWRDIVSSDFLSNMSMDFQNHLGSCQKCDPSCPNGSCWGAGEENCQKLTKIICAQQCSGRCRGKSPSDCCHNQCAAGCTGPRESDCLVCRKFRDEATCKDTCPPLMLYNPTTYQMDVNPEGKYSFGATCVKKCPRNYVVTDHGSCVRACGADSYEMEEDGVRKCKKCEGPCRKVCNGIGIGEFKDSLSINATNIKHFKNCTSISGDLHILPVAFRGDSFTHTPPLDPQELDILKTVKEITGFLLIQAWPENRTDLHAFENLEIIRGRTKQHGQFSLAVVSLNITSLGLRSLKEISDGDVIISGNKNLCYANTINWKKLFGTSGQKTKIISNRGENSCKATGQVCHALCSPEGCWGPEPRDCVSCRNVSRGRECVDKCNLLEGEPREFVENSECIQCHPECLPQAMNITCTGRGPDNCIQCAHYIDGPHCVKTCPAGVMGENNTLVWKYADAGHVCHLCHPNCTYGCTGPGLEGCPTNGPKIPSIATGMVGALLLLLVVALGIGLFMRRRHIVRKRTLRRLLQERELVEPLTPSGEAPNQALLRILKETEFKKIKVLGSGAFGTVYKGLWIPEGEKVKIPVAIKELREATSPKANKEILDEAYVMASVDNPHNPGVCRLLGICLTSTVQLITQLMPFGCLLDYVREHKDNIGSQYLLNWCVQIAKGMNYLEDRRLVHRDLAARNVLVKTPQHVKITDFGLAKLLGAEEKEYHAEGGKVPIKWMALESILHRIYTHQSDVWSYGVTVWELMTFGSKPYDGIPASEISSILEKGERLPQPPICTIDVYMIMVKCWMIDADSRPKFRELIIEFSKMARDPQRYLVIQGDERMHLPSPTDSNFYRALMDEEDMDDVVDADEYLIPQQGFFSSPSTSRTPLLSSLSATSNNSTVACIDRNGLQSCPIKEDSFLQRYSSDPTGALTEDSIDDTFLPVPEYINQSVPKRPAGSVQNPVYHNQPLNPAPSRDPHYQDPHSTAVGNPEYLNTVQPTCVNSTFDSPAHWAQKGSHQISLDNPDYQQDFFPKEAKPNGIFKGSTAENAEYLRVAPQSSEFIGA
Description: Ba/F3 cells expressing EGFR exon 20 insertions (named Ba/F3-EGFR-Exon20-NPG or Ba/F3-EGFR-Exon20-ASV) can proliferate in the absence of IL-3. The anti-proliferative activity of compounds were determined as follows: BaF3-EGFR-Exon20 cells (NPG or ASV) seeded in 96 well plates (2500 cells/well) were treated with test compound (dissolved in DMSO) at a series of concentrations (4-fold dilution, top concentration: 10,000 nM). The plates were incubated for 72 h in a 37° C. incubator with 5% CO2, and the number of viable cells in each well were measured indirectly by CellTiter 96® Aqueous One Solution Cell Proliferation Assay (Promega) This assay is a colorimetric method for determining the number of viable cells through measurement of their metabolic activity by detection of enzymatic conversion of tetrazolium salts into blue formazan derivatives. Reagent (20 μL) was added into each well, and the plates were returned to the incubator for 2 h. The absorbance in each well was then measured at 490 nm using an Envision plate reader (Perkin Elmer).

What is called IC50 is the concentration needed to halve the response being measured.

Where only a bound is given, the exact number is not on record here.

human EGFR L858R and T790M double mutation (LT), sequence (P00533 25-1210 T790M/L858R): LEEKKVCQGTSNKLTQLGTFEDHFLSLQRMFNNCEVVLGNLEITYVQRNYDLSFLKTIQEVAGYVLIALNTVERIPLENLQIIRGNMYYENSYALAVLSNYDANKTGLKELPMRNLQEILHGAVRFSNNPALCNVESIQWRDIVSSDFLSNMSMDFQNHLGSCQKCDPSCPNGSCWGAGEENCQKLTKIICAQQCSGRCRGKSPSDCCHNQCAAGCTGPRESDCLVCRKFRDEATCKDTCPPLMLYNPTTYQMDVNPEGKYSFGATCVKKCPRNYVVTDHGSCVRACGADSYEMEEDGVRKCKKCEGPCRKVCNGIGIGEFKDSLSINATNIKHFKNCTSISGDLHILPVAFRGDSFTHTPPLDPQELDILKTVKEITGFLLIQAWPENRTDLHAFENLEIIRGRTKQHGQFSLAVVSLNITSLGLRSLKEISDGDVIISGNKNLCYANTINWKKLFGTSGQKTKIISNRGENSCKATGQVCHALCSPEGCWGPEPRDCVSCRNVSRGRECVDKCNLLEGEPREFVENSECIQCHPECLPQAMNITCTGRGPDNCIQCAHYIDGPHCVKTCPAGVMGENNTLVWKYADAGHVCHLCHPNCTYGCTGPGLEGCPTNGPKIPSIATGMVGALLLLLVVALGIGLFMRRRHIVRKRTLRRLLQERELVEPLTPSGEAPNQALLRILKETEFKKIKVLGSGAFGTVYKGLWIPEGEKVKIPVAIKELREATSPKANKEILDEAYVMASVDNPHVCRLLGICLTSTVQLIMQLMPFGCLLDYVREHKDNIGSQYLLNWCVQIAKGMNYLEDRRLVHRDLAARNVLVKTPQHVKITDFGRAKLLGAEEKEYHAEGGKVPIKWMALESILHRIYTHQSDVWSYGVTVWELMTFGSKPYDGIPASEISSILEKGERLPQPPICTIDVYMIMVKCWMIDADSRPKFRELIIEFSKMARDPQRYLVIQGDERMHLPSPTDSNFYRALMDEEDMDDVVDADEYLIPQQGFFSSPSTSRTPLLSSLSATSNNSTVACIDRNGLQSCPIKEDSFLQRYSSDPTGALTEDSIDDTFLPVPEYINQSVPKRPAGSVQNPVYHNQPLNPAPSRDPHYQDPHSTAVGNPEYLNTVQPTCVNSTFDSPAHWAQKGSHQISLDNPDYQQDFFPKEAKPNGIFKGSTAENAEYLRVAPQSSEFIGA

Consider `C=CC(=O)Nc1cc(Nc2nccc(-c3c(C(=O)N(C)C)n(C)c4ccccc34)n2)c(OC)cc1N(C)CCN(C)C` [Example 92, 3-(2-((5-acrylamido-4-((2-(dimethylamino)ethyl)(methyl)amino)-2-methoxyphenyl)amino)pyrimidin-4-yl)-N,N,1-trimethyl-1H-indole-2-carboxamide], for which the half-inhibitory concentration (IC50) was 0.1 to 0.5 µM in assay [1], less than 0.1 µM in assay [2], less than 0.1 µM in assay [3] and less than 0.1 µM in assay [4].

As for `C=CC(=O)Nc1cc(Nc2nccc(-c3c(C(=O)NC)n(C)c4ccccc34)n2)c(OC)cc1N(C)CCN(C)C` [Example 91, 3-(2-((5-acrylamido-4-((2-(dimethylamino)ethyl)(methyl)amino)-2-methoxyphenyl)amino)pyrimidin-4-yl)-N,1-dimethyl-1H-indole-2-carboxamide], the IC50 in assay [1] is 0.5 to 1 µM; in assay [3] it was 0.1 to 0.5 µM; in assay [4], less than 0.1 µM. In addition, in assay [2], the “EGFR exon 21 L858R and T790M mutation IC50” value is “B (Group B compounds have an IC50 value for the indicated mutant between about 100 to about 500 nM)”.

`C=CC(=O)Nc1cc(Nc2ncc(P(C)(C)=O)c(-c3cn(C)c4ccccc34)n2)c(OC)cc1N(C)CCN(C)C` [Example 96, N-(2-((2-(dimethylamino)ethyl)(methyl)amino)-5-((5-(dimethylphosphoryl)-4-(1-methyl-1H-indol-3-yl)pyrimidin-2-yl)amino)-4-methoxyphenyl)acrylamide]: the IC50 in assay [1] and in assay [3] was more than 1 µM throughout. Besides, the “EGFR exon 21 L858R and T790M mutation IC50” value in assay [2] is recorded as “B (Group B compounds have an IC50 value for the indicated mutant between about 100 to about 500 nM)”. Moreover, the “EGFR exon 19 deletion and T790M mutation IC50” value in assay [4] was “B (Group B compounds have an IC50 value for the indicated mutant between about 100 to about 500 nM)”.

With `C=CC(=O)Nc1cc(Nc2nccc(-c3c(C(=O)NCCOC)n(C)c4ccccc34)n2)c(OC)cc1N(C)CCN(C)C` [Example 93, 3-(2-((5-acrylamido-4-((2-(dimethylamino)ethyl)(methyl)amino)-2-methoxyphenyl)amino)pyrimidin-4-yl)-N-(2-methoxyethyl)-1-methyl-1H-indole-2-carboxamide], the results for the IC50 in assay [1] and in assay [3] were more than 1 µM and 0.5 to 1 µM, respectively. For the same molecule, the “EGFR exon 21 L858R and T790M mutation IC50” value in assay [2] is reported as “C (Group C compounds have an IC50 value for the indicated mutant between greater than about 500 to about 1 μM)”. In assay [4], the “EGFR exon 19 deletion and T790M mutation IC50” value is reported as “B (Group B compounds have an IC50 value for the indicated mutant between about 100 to about 500 nM)”.

On to `C=CC(=O)Nc1cc(Nc2ncc(NC(=O)NC)c(-c3cn(C)c4ccccc34)n2)c(OC)cc1N(C)CCN(C)C` [Example 99, N-(2-((2-(dimethylamino)ethyl)(methyl)amino)-4-methoxy-5-((4-(1-methyl-1H-indol-3-yl)-5-(3-methylureido)pyrimidin-2-yl)amino)phenyl)acrylamide], for which the IC50 in assay [1] is more than 1 µM; in assay [2], more than 1 µM; in assay [3], 0.5 to 1 µM; in assay [4], more than 1 µM.

For the molecule `C=CC(=O)Nc1cc(Nc2nccc(-c3c(C(N)=O)n(C)c4ccccc34)n2)c(OC)cc1N(C)CCN(C)C` [Example 90, 3-(2-((5-acrylamido-4-((2-(dimethylamino)ethyl)(methyl)amino)-2-methoxyphenyl)amino)pyrimidin-4-yl)-1-methyl-1H-indole-2-carboxamide], the IC50 in assay [1] is 0.5 to 1 µM; in assay [2], less than 0.1 µM; in assay [3] it was 0.1 to 0.5 µM; in assay [4], less than 0.1 µM.

For the molecule `C=CC(=O)Nc1cc(Nc2nccc(-c3cn(CC(N)=O)c4ccccc34)n2)c(OC)cc1N(C)CCN(C)C` [Example 70, N-(5-((4-(1-(2-amino-2-oxoethyl)-1H-indol-3-yl)pyrimidin-2-yl)amino)-2-((2-(dimethylamino)ethyl)(methyl)amino)-4-methoxyphenyl)acrylamide], the IC50 is 0.1 to 0.5 µM in assay [1], less than 0.1 µM in assay [2], less than 0.1 µM in assay [3] and less than 0.1 µM in assay [4].

Take `C=CC(=O)Nc1cc(Nc2nccc(-c3cn(C)c4cc(C#N)ccc34)n2)c(OC)cc1N(C)CCN(C)C` [Example 89, N-(5-((4-(6-cyano-1-methyl-1H-indol-3-yl)pyrimidin-2-yl)amino)-2-((2-(dimethylamino)ethyl)(methyl)amino)-4-methoxyphenyl)acrylamide]: the IC50 in assay [1] was 0.1 to 0.5 µM; in assay [2] it was less than 0.1 µM; in assay [3], less than 0.1 µM; in assay [4], less than 0.1 µM.

As for `C=CC(=O)Nc1cc(Nc2nccc(-c3c(C#N)n(C)c4ccccc34)n2)c(OC)cc1N(C)CCN(C)C` [Example 88, N-(5-((4-(2-cyano-1-methyl-1H-indol-3-yl)pyrimidin-2-yl)amino)-2-((2-(dimethylamino)ethyl)(methyl)amino)-4-methoxyphenyl)acrylamide], the concentration for half-maximal inhibition (IC50) in assay [1] was 0.1 to 0.5 µM; in assay [2], less than 0.1 µM; in assay [3], less than 0.1 µM; in assay [4], less than 0.1 µM.

Turning to `C=CC(=O)Nc1cc(Nc2nccc(-c3c(C(=O)OC)n(C)c4ccccc34)n2)c(OC)cc1N(C)CCN(C)C` [Example 86, methyl 3-(2-((5-acrylamido-4-((2-(dimethylamino)ethyl)(methyl)amino)-2-methoxyphenyl)amino)pyrimidin-4-yl)-1-methyl-1H-indole-2-carboxylate], the 50% inhibitory concentration (IC50) in assay [1] was 0.5 to 1 µM; in assay [2], less than 0.1 µM; in assay [3] it was less than 0.1 µM; in assay [4], less than 0.1 µM.

Consider `C=CC(=O)Nc1cc(Nc2nccc(-c3c(-c4cncc(Cl)c4)n(C)c4ccccc34)n2)c(OC)cc1N(C)CCN(C)C` [Example 6, N-(5-((4-(2-(5-chloropyridin-3-yl)-1-methyl-1H-indol-3-yl)pyrimidin-2-yl)amino)-2-((2-(dimethylamino)ethyl)(methyl)amino)-4-methoxyphenyl)acrylamide], for which the IC50 in assay [5] is less than 0.1 µM; in assay [1], 0.1 to 0.5 µM; in assay [3], less than 0.1 µM; in assay [4], less than 0.1 µM.

For `C=CC(=O)Nc1cc(Nc2ncc(C(=O)OCC)c(-c3cn(C)c4ccccc34)n2)c(OC)cc1N(C)C[C@H]1CCCN1C` [Example 65, ethyl (R)-2-((5-acrylamido-2-methoxy-4-(methyl((1-methylpyrrolidin-2-yl)methyl)amino)phenyl)amino)-4-(1-methyl-1H-indol-3-yl)pyrimidine-5-carboxylate], the 50% inhibitory concentration (IC50) in assay [5], in assay [1], in assay [3] and in assay [4] was less than 0.1 µM throughout.

In the case of `C=CC(=O)Nc1cc(Nc2ncc(C(=O)OC3CN(C)C3)c(-c3cn(C)c4ccccc34)n2)c(OC)cc1N(C)CCN(C)C` [Example 12, 1-methylazetidin-3-yl 2-((5-acrylamido-4-((2-(dimethylamino)ethyl)(methyl)amino)-2-methoxyphenyl)amino)-4-(1-methyl-1H-indol-3-yl)pyrimidine-5-carboxylate], the IC50 in assay [5], in assay [1], in assay [3] and in assay [4] was more than 1 µM each time.

On to `C=CC(=O)Nc1ccc(OC)c(Nc2ncc(Cl)c(-c3c[nH]c4cc(OCCN5CCCC5)ccc34)n2)c1` [Example 22, N-(3-((5-chloro-4-(6-(2-(pyrrolidin-1-yl)ethoxy)-1H-indol-3-yl)pyrimidin-2-yl)amino)-4-methoxyphenyl)acrylamide], for which the IC50 in assay [5] was less than 0.1 µM; in assay [1] it was 0.1 to 0.5 µM; in assay [3], 0.1 to 0.5 µM; in assay [4], less than 0.1 µM.

Take `C=CC(=O)Nc1cc(Nc2nccc(-c3cn(C)c4cccc(C(=O)OC)c34)n2)c(OC)cc1N(C)CCN(C)C` [Example 80, methyl 3-(2-((5-acrylamido-4-((2-(dimethylamino)ethyl)(methyl)amino)-2-methoxyphenyl)amino)pyrimidin-4-yl)-1-methyl-1H-indole-4-carboxylate]: the IC50 in assay [5], in assay [1] and in assay [3] was more than 1 µM throughout. In assay [4], the “EGFR exon 19 deletion and T790M mutation IC50” value was “D (Group D compounds have an IC50 value for the indicated mutant greater than about 1 μM)”.

Take `C=CC(=O)Nc1cc(Nc2ncc(C(=O)OC(C)C)c(-c3cn(C)c4c(OC)cccc34)n2)c(OC)cc1N(C)CCN(C)C` [Example 31, isopropyl 2-((5-acrylamido-4-((2-(dimethylamino)ethyl)(methyl)amino)-2-methoxyphenyl)amino)-4-(7-methoxy-1-methyl-1H-indol-3-yl)pyrimidine-5-carboxylate]: the half-inhibitory concentration (IC50) in assay [5], in assay [1], in assay [3] and in assay [4] was less than 0.1 µM in each case.

Take `C=CC(=O)Nc1ccc(OC)c(Nc2ncc(C#N)c(-c3cn(C)c4cc(OCCCN(C)C)ccc34)n2)c1` [Example 19, N-(3-((5-cyano-4-(6-(3-(dimethylamino)propoxy)-1-methyl-1H-indol-3-yl)pyrimidin-2-yl)amino)-4-methoxyphenyl)acrylamide]: the IC50 in assay [5] is less than 0.1 µM; in assay [1], 0.5 to 1 µM; in assay [3], 0.1 to 0.5 µM; in assay [4], less than 0.1 µM.

The values above are taken from patent US10227342B2 (ARIAD PHARMACEUTICALS, INC., priority 2014, dated 2019).
